Source: patent US9278990B2, “Substituted nucleotide analogs” (priority 2010, dated 2016)
Changes are numbered by the printed parent chain.

B1: IFN-Lambda 1 (protein, UniProt Q8IU54 20-200, looked up)
Interferon lambda-1: GPVPTSKPTTTGKGCHIGRFKSLSPQELASFKKARDALEESLKLKNWSCSSPVFPGNWDLRLLQVRERPVALEAELALTLKVLEAAAGPALEDVLDQPLHTLHHILSQLQACIQPQPTAGPRPRGRLHHWLHRLQEAPKKESAGCLEASVTFNLFRLLTRDLKYVADGNLCLRTSTHPEST
B2: IFN-Lambda 2 (protein, UniProt Q8IZJ0 26-200, looked up)
Interferon lambda-2: VPVARLHGALPDARGCHIAQFKSLSPQELQAFKRAKDALEESLLLKDCRCHSRLFPRTWDLRQLQVRERPMALEAELALTLKVLEATADTDPALVDVLDQPLHTLHHILSQFRACIQPQPTAGPRTRGRLHHWLYRLQEAPKKESPGCLEASVTFNLFRLLTRDLNCVASGDLCV
B3: IFN-Lambda 3 (protein, UniProt Q8IZI9 22-196, looked up)
Interferon lambda-3: B2 Interferon lambda-2 with H7R, R49K, H51R, M71V, V95G, F112L, Y135H

The molecules below were run against T1, NS5B570-Con1 (Delta-21) (Hepatitis C virus genotype 1b, UniProt Q9WMX2) (assay: NS5B inhibition assay). Conditions: IC50 value, incorporation of tritiated NMP into acid-insoluble RNA, 2 hours at 37° C.
T1 construct: NS5B570-Con1 (Delta-21)
Assay type: biochemical, HCV
Method: The enzyme activity of NS5B570-Con1 (Delta-21) was measured as an incorporation of tritiated NMP into acid-insoluble RNA products. The complementary IRES (cIRES) RNA sequence was used as a template, corresponding to 377 nucleotides from the 3′-end of HCV (−) strand RNA of the Con-1 strain, with a base content of 21% Ade, 23% Ura, 28% Cyt, and 28% Gua. The cIRES RNA was transcribed in vitro using a T7 transcription kit (Ambion, Inc.) and purified using the Qiagen RNeasy maxi kit. HCV polymerase reactions contained 50 nM NS5B570-Con1, 50 nM cIRES RNA, about 0.5 μCi tritiated NTP, 1 μM of competing cold NTP, 20 mM NaCl, 40 mM Tris-HCl (pH 8.0), 4 mM dithiothreitol, and 4 mM MgCl2. Standard reactions were incubated for 2 hours at 37° C., in the presence of increasing concentration of inhibitor. At the end of the reaction, RNA was precipitated with 10% TCA, and acid-insoluble RNA products were filtered on a size exclusion 96-well plate. After washing of the plate, scintillation liquid was added and radio labeled RNA products were detected according to standard procedures with a Trilux Topcount scintillation counter.
For `C[C@@]1(F)[C@H](O)[C@@H](COP(O)(=S)OP(=O)(O)OP(=O)(O)O)O[C@H]1n1cnc2c(=O)[nH]c(N)nc21` (single isomer, unassigned) [Compound 5e], the IC50 was under 1 µM. Molecule `C[C@@]1(F)[C@H](O)[C@@H](COP(O)(=S)OP(=O)(O)OP(=O)(O)O)O[C@H]1n1ccc(=O)[nH]c1=O` (single isomer, unassigned) [Compound 5c] has an IC50 of 1 to 10 µM. `C[C@@]1(O)[C@H](O)[C@@H](COP(O)(=S)OP(=O)(O)OP(=O)(O)O)O[C@H]1n1cnc2c(=O)[nH]c(N)nc21` (single isomer, unassigned) [Compound 5h] was tested, and the IC50 was 1 to 10 µM. Work on `C[C@@]1(F)[C@H](O)[C@@H](COP(O)(=S)OP(=O)(O)OP(=O)(O)O)O[C@H]1n1ccc(=O)[nH]c1=O` (single isomer, unassigned) [Compound 5d] yielded an IC50 of 10 to 100 µM. With `C[C@@]1(O)[C@H](O)[C@@H](COP(O)(=S)OP(=O)(O)OP(=O)(O)O)O[C@H]1n1ccc(=O)[nH]c1=O` (single isomer, unassigned) [Compound 5b] the IC50 was under 1 µM. For `C[C@@]1(O)[C@H](O)[C@@H](COP(O)(=S)OP(=O)(O)OP(=O)(O)O)O[C@H]1n1cnc2c(=O)[nH]c(N)nc21` (single isomer, unassigned) [Compound 5g], the IC50 was under 1 µM. For `C[C@@]1(O)[C@H](O)[C@@H](COP(O)(=S)OP(=O)(O)OP(=O)(O)O)O[C@H]1n1ccc(=O)[nH]c1=O` (single isomer, unassigned) [Compound 5a], the IC50 was 10 to 100 µM.

Same assay, conditions: read-out: IC50 value, incorporation of tritiated NMP into acid-insoluble RNA, 2 hours at 37° C.
`C[C@@]1(F)[C@H](O)[C@@H](COP(O)(=S)OP(=O)(O)OP(=O)(O)O)O[C@H]1n1cnc2c(=O)[nH]c(N)nc21` (single isomer, unassigned) [Compound 5f] gave an IC50 of under 1 µM.

What follows are molecules tested on HCV genotype 1b HCV replicon harbored in Huh7 cells (assay: Combination testing in HCV replicon (CalcuSyn CI and MacSynergy II synergy volume)). Conditions: combination of compound 3b with the listed combination compound; MacSynergy II (Bliss independence); 72 h; 25-100 synergistic, >100 strongly synergistic.
Assay type: cell-based
Method: Two or more test compounds were tested in combination with each other using an HCV genotype 1b HCV replicon harbored in Huh7 cells with a stable luciferase (LUC) reporter. Cells were cultured under standard conditions in Dulbecco's modified Eagle's medium (DMEM; Mediatech Inc, Herndon, Va.) containing 10% heat-inactivated fetal bovine serum (FBS; Mediatech Inc, Herndon, Va.) 2 mM L-glutamine, and nonessential amino acids (JRH Biosciences). HCV replicon cells were plated in a 96-well plate at a density of 10^4 cells per well in DMEM with 10% FBS. […] The cells were incubated with no compound as a control, with the test compounds, or the combination of compounds for 72 h. The direct effects of the combination of the test compounds were examined using a luciferase (LUC) based reporter as determined by the Bright-Glo Luciferase Assay (Promega, Madison, Wis.). Dose-response curves were determined for individual compounds and fixed ratio combinations of two or more test compounds.
The effects of test compound combinations were evaluated by two separate methods. In the Loewe additivity model, the experimental replicon data was analyzed by using CalcuSyn (Biosoft, Ferguson, Mo.), a computer program based on the method of Chou and Talalay. The program uses the experimental data to calculate a combination index (CI) value for each experimental combination tested. A CI value of <1 indicates a synergistic effect, a CI value of 1 indicates an additive effect, and a CI value of >1 indicates an antagonistic effect.
The second method utilized for evaluating combination effects used a program called MacSynergy II. MacSynergy II software was kindly provided by Dr. M. Prichard (University of Michigan). The Prichard Model allows for a three-dimensional examination of drug interactions and a calculation of the synergy volume (units: μM^2 %) generated from running the replicon assay using a checkerboard combination of two or more inhibitors. The volumes of synergy (positive volumes) or antagonism (negative volumes) represent the relative quantity of synergism or antagonism per change in the concentrations of the two drugs. Synergy and antagonism volumes are defined based on the Bliss independence model. In this model, synergy volumes of less than −25 indicate antagonistic interactions, volumes in the −25-25 range indicate additive behavior, volumes in the 25-100 range indicate synergistic behavior and volumes >100 indicate strong synergistic behavior.
In the case of `CCc1cc(CC[C@]2(C3CCCC3)CC(O)=C(Cc3nc4nc(C)cc(C)n4n3)C(=O)O2)cc(CC)n1` [Filibuvir], the “Synergy Volume” value is reported as 23 μM^2%. `CCC[C@H](NC(=O)[C@@H]1[C@H]2CCC[C@H]2CN1C(=O)[C@@H](NC(=O)[C@@H](NC(=O)c1cnccn1)C1CCCCC1)C(C)(C)C)C(=O)C(=O)NC1CC1` [VX-950, Telaprevir] was tested, and the “Synergy Volume” value was 76 μM^2%. For `CCOc1nc(N)nc2c1ncn2[C@@H]1O[C@@H]2COP(=O)(OC(C)C)O[C@H]2[C@@]1(C)F` (stereo partly shown) [PSI-938], the “Synergy Volume” value was 27 μM^2%. `NC(=O)c1ncn([C@@H]2O[C@H](CO)[C@@H](O)[C@H]2O)n1` [Ribavirin, ribavirin] was tested, and the “Synergy Volume” value was 22 μM^2%. With `C[C@@]1(F)[C@H](O)[C@@H](CO)O[C@H]1n1ccc(N)nc1=O` [PSI-6130] the “Synergy Volume” value was 15 μM^2%. For `COc1nc(N)nc2c1ncn2[C@@H]1O[C@H](COP(=O)(N[C@@H](C)C(=O)OCC(C)(C)C)Oc2cccc3ccccc23)[C@@H](O)[C@@]1(C)O` (stereo partly shown) [INX-189], the “Synergy Volume” value was 65 μM^2%. With `COc1ccc2c(O[C@@H]3C[C@H]4C(=O)N[C@]5(C(=O)O)C[C@H]5/C=C\CCCCC[C@H](NC(=O)OC5CCCC5)C(=O)N4C3)cc(-c3csc(NC(C)C)n3)nc2c1` [BILN-2061] the “Synergy Volume” value was 31 μM^2%. `CC(C)OC(=O)[C@H](C)NP(=O)(OC[C@H]1O[C@@H](n2ccc(=O)[nH]c2=O)[C@](C)(F)[C@@H]1O)Oc1ccccc1` (stereo partly shown) [PSI-7851] was tested, and the “Synergy Volume” value was 0 μM^2%. In the case of `Fc1ccccc1-c1nc2ccn(Cc3ccc(-c4ccc(C(F)(F)F)cc4C(F)(F)F)nn3)cc-2n1` [GS-9190], the “Synergy Volume” value is reported as 79 μM^2%. For `COc1ccc2c(O[C@@H]3C[C@H]4C(=O)N[C@]5(C(=O)NS(=O)(=O)C6CC6)C[C@H]5/C=C\CCCCN(C)C(=O)[C@@H]4C3)cc(-c3nc(C(C)C)cs3)nc2c1C` [TMC-435], the “Synergy Volume” value was 126 μM^2%. `CNC(=O)c1c(-c2ccc(F)cc2)oc2cc(N(CCO)S(C)(=O)=O)c(C3CC3)cc12` [HCV-796] was tested, and the “Synergy Volume” value was 31 μM^2%. In the case of `CC(C)(C)OC(=O)N[C@H]1CCCCC/C=C\[C@@H]2C[C@@]2(C(=O)NS(=O)(=O)C2CC2)NC(=O)[C@@H]2C[C@@H](OC(=O)N3Cc4cccc(F)c4C3)CN2C1=O` [ITMN-191], the “Synergy Volume” value is reported as 126 μM^2%. With `CC(C)(C)C#Cc1cc(N(C(=O)[C@H]2CC[C@H](C)CC2)[C@H]2CC[C@H](O)CC2)c(C(=O)O)s1` [VX-222] the “Synergy Volume” value was 38 μM^2%. In the case of `COC(=O)N[C@H](C(=O)N1CCC[C@H]1c1nc(-c2ccc(-c3ccc(-c4c[nH]c([C@@H]5CCCN5C(=O)[C@@H](NC(=O)OC)C(C)C)n4)cc3)cc2)c[nH]1)C(C)C` [BMS-790052], the “Synergy Volume” value is reported as 26 μM^2%. In the case of B1, the “Synergy Volume” value is reported as 116 μM^2%. In the case of B2, the “Synergy Volume” value is reported as 34 μM^2%. In the case of B3, the “Synergy Volume” value is reported as 35 μM^2%.
